IC50 data for 38 compounds are collected here from US11530210B2, “Substituted heteroaromatic pyrazolo-pyridines and their use as GLUN2B receptor modulators” (JANSSEN PHARMACEUTICA NV, priority 2019, dated 2022).

The target in the experiment is T1, human GluN1/GluN2B NMDA receptors (Homo sapiens, UniProt Q13224).
T1 construct: expressed in transfected cells
Put plainly: Calcium flux (FLIPR) assay on cloned human NR1/GluN2B ion channels expressed in mammalian cells (standard and HTS variants). Type of experiment: cell-based. Particulars: cells expressing human GluN1/GluN2B, glutamate and glycine co-agonists. In outline: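 Tet-On-induced stable cell line loaded with Calcium 5 dye; compounds applied 5 min (agonist check), then glutamate at ~EC40 plus 10 μM glycine for 5 min. Buffer pH 7.4 with 0.5 mM MgCl2 in dye loading (standard) or 1.5 mM (HTS). FLIPR fluorescence normalized to control wells; (+)MK-801 as antagonist control.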
(A change in cytosolic calcium serves as a functional read-out for many receptors and channels.)

SMILES strings stand for the structures. Structures can show the parent of a compound that is named as a salt.

T1 sequence (Q13224 27-1484, other chains not shown): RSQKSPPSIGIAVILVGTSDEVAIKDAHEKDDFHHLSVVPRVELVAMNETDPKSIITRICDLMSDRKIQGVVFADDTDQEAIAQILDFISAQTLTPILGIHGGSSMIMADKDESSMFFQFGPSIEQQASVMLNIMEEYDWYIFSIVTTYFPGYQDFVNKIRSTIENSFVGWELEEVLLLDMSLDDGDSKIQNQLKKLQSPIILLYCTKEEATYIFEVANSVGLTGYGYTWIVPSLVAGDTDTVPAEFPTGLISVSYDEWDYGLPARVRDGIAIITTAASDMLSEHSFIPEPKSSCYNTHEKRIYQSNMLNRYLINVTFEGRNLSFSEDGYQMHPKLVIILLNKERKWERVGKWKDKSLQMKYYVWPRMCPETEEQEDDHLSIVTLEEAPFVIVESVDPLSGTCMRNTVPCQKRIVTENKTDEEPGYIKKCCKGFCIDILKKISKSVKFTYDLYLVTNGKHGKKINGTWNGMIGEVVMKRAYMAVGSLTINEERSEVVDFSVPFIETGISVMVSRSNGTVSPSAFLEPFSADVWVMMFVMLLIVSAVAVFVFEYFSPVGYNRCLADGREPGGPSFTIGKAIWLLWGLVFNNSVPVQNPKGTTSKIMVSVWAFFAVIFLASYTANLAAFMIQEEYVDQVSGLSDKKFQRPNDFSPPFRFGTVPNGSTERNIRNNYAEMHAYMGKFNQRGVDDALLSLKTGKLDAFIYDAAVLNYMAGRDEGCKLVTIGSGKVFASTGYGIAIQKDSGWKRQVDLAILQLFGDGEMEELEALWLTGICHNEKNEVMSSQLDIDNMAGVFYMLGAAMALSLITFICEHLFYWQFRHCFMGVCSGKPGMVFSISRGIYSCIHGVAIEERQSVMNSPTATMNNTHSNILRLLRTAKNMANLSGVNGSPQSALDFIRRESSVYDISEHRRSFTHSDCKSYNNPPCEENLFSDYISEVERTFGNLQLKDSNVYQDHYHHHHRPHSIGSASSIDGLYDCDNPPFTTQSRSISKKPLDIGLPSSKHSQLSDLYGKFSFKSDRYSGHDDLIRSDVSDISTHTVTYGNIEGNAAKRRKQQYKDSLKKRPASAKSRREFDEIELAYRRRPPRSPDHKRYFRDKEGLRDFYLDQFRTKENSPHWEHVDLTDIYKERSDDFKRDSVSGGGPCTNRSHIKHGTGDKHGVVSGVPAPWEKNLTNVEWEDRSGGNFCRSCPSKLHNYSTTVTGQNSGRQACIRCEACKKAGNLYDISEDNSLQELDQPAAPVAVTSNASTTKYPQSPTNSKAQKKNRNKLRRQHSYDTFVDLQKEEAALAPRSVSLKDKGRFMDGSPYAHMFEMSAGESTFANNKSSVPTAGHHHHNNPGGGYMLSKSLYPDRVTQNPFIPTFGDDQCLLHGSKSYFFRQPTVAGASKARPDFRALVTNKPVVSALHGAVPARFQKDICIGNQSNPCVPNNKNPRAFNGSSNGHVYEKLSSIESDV

Regarding `Cc1c(F)ccc(-c2cnc3cnn(Cc4nnc(C(F)(F)F)o4)c3c2)c1F` [Example 119, 2-[[6-(2,4-Difluoro-3-methyl-phenyl)pyrazolo[4,3-b]pyridin-1-yl]methyl]-5-(trifluoromethyl)-1,3,4-oxadiazole], the IC50 worked out at 245 nM.

For the compound `FC(F)(F)c1cccc(-c2cnc3cnn(Cc4csnn4)c3c2)c1` [Example 120, 4-[[6-[3-(Trifluoromethyl)phenyl]pyrazolo[4,3-b]pyridin-1-yl]methyl]thiadiazole], the IC50 worked out at 895 nM.

`Fc1ccc(-c2cnc3cnn(Cc4nncs4)c3c2)cc1C(F)F` [Example 121, 2-[[6-[3-(Difluoromethyl)-4-fluoro-phenyl]pyrazolo[4,3-b]pyridin-1-yl]methyl]-1,3,4-thiadiazole]: the half-maximal inhibitory concentration (IC50) was 25 nM.

In the case of `Cc1nnc(Cn2nc(F)c3ncc(-c4ccc(F)c(C(F)F)c4)cc32)s1` [Example 123, 2-[[6-[3-(Difluoromethyl)-4-fluoro-phenyl]-3-fluoro-pyrazolo[4,3-b]pyridin-1-yl]methyl]-5-methyl-1,3,4-thiadiazole], the IC50 was determined as 42 nM.

Consider `Cc1nnc(Cn2nc(C)c3ncc(-c4ccc(F)c(C(F)F)c4)cc32)s1` [Example 124, 2-[[6-[3-(Difluoromethyl)-4-fluoro-phenyl]-3-methyl-pyrazolo[4,3-b]pyridin-1-yl]methyl]-5-methyl-1,3,4-thiadiazole], for which the IC50 is 66 nM.

In the case of `CCc1nnc(Cn2ncc3ncc(-c4ccc(F)c(C(F)F)c4)cc32)s1` [Example 125, 2-[[6-[3-(Difluoromethyl)-4-fluoro-phenyl]pyrazolo[4,3-b]pyridin-1-yl]methyl]-5-ethyl-1,3,4-thiadiazole], the concentration for half-maximal inhibition (IC50) was found to be 138 nM.

As for `CNc1nnc(Cn2ncc3ncc(-c4ccc(F)c(C(F)F)c4)cc32)s1` [Example 126, 5-((6-(3-(difluoromethyl)-4-fluorophenyl)-1H-pyrazolo[4,3-b]pyridin-1-yl)methyl)-N-methyl-1,3,4-thiadiazol-2-amine], the half-maximal inhibitory concentration (IC50) was 1620 nM.

Turning to `COc1nnc(Cn2ncc3ncc(-c4ccc(F)c(C(F)F)c4)cc32)s1` [Example 127, 2-[[6-[3-(difluoromethyl)-4-fluoro-phenyl]pyrazolo[4,3-b]pyridin-1-yl]methyl]-5-methoxy-1,3,4-thiadiazole], the IC50 amounted to 850 nM.

Turning to `CC(=O)Nc1nnc(Cn2ncc3ncc(-c4ccc(F)c(C(F)F)c4)cc32)s1` [Example 128, N-(5-((6-(3-(Difluoromethyl)-4-fluorophenyl)-1H-pyrazolo[4,3-b]pyridin-1-yl)methyl)-1,3,4-thiadiazol-2-yl)acetamide], the IC50 was more than 2990 nM.

On to `Fc1ccc(-c2cnc3cnn(Cc4nnc(C(F)F)s4)c3c2)cc1C(F)F` [Example 129, 2-(Difluoromethyl)-5-[[6-[3-(difluoromethyl)-4-fluoro-phenyl]pyrazolo[4,3-b]pyridin-1-yl]methyl]-1,3,4-thiadiazole], for which the IC50 came out at 17 nM.

Consider `Fc1ccc(-c2cnc3cnn(Cc4nnc(C5CC5)s4)c3c2)cc1C(F)F` [Example 130, 2-Cyclopropyl-5-[[6-[3-(difluoromethyl)-4-fluoro-phenyl]pyrazolo[4,3-b]pyridin-1-yl]methyl]-1,3,4-thiadiazole], for which the half-maximal inhibitory concentration (IC50) was determined as 123 nM.

Take `Cc1nnc(Cn2ncc3ncc(-c4ccc(Cl)c(C(F)F)c4)cc32)s1` [Example 131, 2-[[6-[4-Chloro-3-(difluoromethyl)phenyl]pyrazolo[4,3-b]pyridin-1-yl]methyl]-5-methyl-1,3,4-thiadiazole]: the 50% inhibitory concentration (IC50) is 57 nM.

In the case of `Cc1nnc(Cn2ncc3ncc(-c4ccc(F)c(C)c4)cc32)s1` [Example 132, 2-[[6-(4-Fluoro-3-methyl-phenyl)pyrazolo[4,3-b]pyridin-1-yl]methyl]-5-methyl-1,3,4-thiadiazole], the IC50 worked out at 33 nM.

As to `Cc1nnc(Cn2ncc3ncc(-c4ccc(F)c(OC(F)F)c4)cc32)s1` [Example 133, 2-[[6-[3-(Difluoromethoxy)-4-fluoro-phenyl]pyrazolo[4,3-b]pyridin-1-yl]methyl]-5-methyl-1,3,4-thiadiazole], the concentration for half-maximal inhibition (IC50) worked out at 72 nM.

Take `Cc1nnc(Cn2ncc3ncc(-c4ccc(Cl)c(OC(F)F)c4)cc32)s1` [Example 135, 2-[[6-[4-Chloro-3-(difluoromethoxy)phenyl]pyrazolo[4,3-b]pyridin-1-yl]methyl]-5-methyl-1,3,4-thiadiazole]: the IC50 worked out at 133 nM.

With `Cc1nnc(Cn2ncc3ncc(-c4ccc(F)c(C)c4F)cc32)s1` [Example 136, 2-[[6-(2,4-Difluoro-3-methyl-phenyl)pyrazolo[4,3-b]pyridin-1-yl]methyl]-5-methyl-1,3,4-thiadiazole], the half-inhibitory concentration (IC50) came out at 17 nM.

Consider `Cc1csc(-c2cnc3cnn(Cc4cccnc4)c3c2)c1` [Example 137, 6-(4-Methyl-2-thienyl)-1-(3-pyridylmethyl)pyrazolo[4,3-b]pyridine], for which the IC50 is 116 nM.

Turning to `Cc1cncc(Cn2ncc3ncc(-c4cc(C)cs4)cc32)c1` [Example 138, 1-[(5-Methyl-3-pyridyl)methyl]-6-(4-methyl-2-thienyl)pyrazolo[4,3-b]pyridine], the concentration for half-maximal inhibition (IC50) is 159 nM.

As for `Cc1ccc(-c2cnc3cnn(Cc4cccnc4)c3c2)s1` [Example 139, 6-(5-Methyl-2-thienyl)-1-(3-pyridylmethyl)pyrazolo[4,3-b]pyridine], the half-inhibitory concentration (IC50) stood at 89 nM.

In the case of `N#Cc1cncc(Cn2ncc3ncc(-c4ccc(Cl)s4)cc32)c1` [Example 140, 5-[[6-(5-Chloro-2-thienyl)pyrazolo[4,3-b]pyridin-1-yl]methyl]pyridine-3-carbonitrile], the IC50 worked out at 170 nM.

As to `Clc1ccsc1-c1cnc2cnn(Cc3cccnc3)c2c1` [Example 141, 6-(3-Chloro-2-thienyl)-1-(3-pyridylmethyl)pyrazolo[4,3-b]pyridine], the half-inhibitory concentration (IC50) was 61 nM.

Regarding `N#Cc1cncc(Cn2ncc3ncc(-c4ccc(C(F)F)s4)cc32)c1` [Example 142, 5-[[6-[5-(Difluoromethyl)-2-thienyl]pyrazolo[4,3-b]pyridin-1-yl]methyl]pyridine-3-carbonitrile], the IC50 came out at 219 nM.

Turning to `Fc1ccc(Cn2ncc3ncc(-c4ccc(C(F)(F)F)s4)cc32)cn1` [Example 143, 1-((6-Fluoropyridin-3-yl)methyl)-6-(5-(trifluoromethyl)thiophen-2-yl)-1H-pyrazolo[4,3-b]pyridine], the half-maximal inhibitory concentration (IC50) was determined as 132 nM.

As to `N#Cc1cncc(Cn2ncc3ncc(-c4ccc(C(F)(F)F)s4)cc32)c1` [Example 144, 5-[[6-[5-(Trifluoromethyl)-2-thienyl]pyrazolo[4,3-b]pyridin-1-yl]methyl]pyridine-3-carbonitrile], the half-inhibitory concentration (IC50) came out at 582 nM.

Regarding `Cc1cccc(-c2cnc3cnn(Cc4ccc(F)nc4)c3c2)c1` [Example 145, 1-[(6-Fluoro-3-pyridyl)methyl]-6-(m-tolyl)pyrazolo[4,3-b]pyridine], the half-inhibitory concentration (IC50) came out at 36 nM.

Regarding `Cc1cccc(-c2cnc3cnn(Cc4cncc(F)c4)c3c2)c1` [Example 146, 1-[(5-Fluoro-3-pyridyl)methyl]-6-(m-tolyl)pyrazolo[4,3-b]pyridine], the IC50 amounted to 9 nM.

With `Cc1cccc(-c2cnc3c(F)nn(Cc4cncc(F)c4)c3c2)c1` [Example 147, 3-Fluoro-1-[(5-fluoro-3-pyridyl)methyl]-6-(m-tolyl)pyrazolo[4,3-b]pyridine], the IC50 is 48 nM.

For `Fc1cncc(Cn2ncc3ncc(-c4ccc(Cl)cc4)cc32)c1` [Example 148, 6-(4-Chlorophenyl)-1-[(5-fluoro-3-pyridyl)methyl]pyrazolo[4,3-b]pyridine trifluoroacetate salt], the IC50 was 634 nM.

With `Fc1ccc(-c2cnc3cnn(Cc4ccccn4)c3c2)cc1` [Example 149, 6-(4-Fluorophenyl)-1-(2-pyridylmethyl)pyrazolo[4,3-b]pyridine], the half-maximal inhibitory concentration (IC50) was 3460 nM.

Take `COc1cncc(Cn2ncc3ncc(-c4ccc(F)cc4)cc32)c1` [Example 150, 6-(4-Fluorophenyl)-1-[(5-methoxy-3-pyridyl)methyl]pyrazolo[4,3-b]pyridine]: the IC50 amounted to 410 nM.

Consider `Fc1ccc(-c2cnc3cnn(Cc4cncc(OC(F)F)c4)c3c2)cc1` [Example 151, 1-[[5-(Difluoromethoxy)-3-pyridyl]methyl]-6-(4-fluorophenyl)pyrazolo[4,3-b]pyridine], for which the IC50 turned out to be 1150 nM.

Turning to `Fc1cccc(-c2cnc3cnn(Cc4ccccn4)c3c2)c1` [Example 152, 6-(3-Fluorophenyl)-1-(2-pyridylmethyl)pyrazolo[4,3-b]pyridine], the IC50 came out at 2180 nM.

For the compound `Fc1cncc(Cn2ncc3ncc(-c4ccccc4F)cc32)c1` [Example 153, 6-(2-Fluorophenyl)-1-[(5-fluoro-3-pyridyl)methyl]pyrazolo[4,3-b]pyridine], the IC50 was found to be 720 nM.

In the case of `COc1cccc(-c2cnc3cnn(Cc4ccccn4)c3c2)c1` [Example 154, 6-(3-Methoxyphenyl)-1-(2-pyridylmethyl)pyrazolo[4,3-b]pyridine], the IC50 was 7370 nM.

Turning to `COc1cccc(-c2cnc3cnn(Cc4ccc(F)nc4)c3c2)c1` [Example 155, 1-[(6-Fluoro-3-pyridyl)methyl]-6-(3-methoxyphenyl)pyrazolo[4,3-b]pyridine], the IC50 was 1650 nM.

On to `FC(F)c1cccc(-c2cnc3cnn(Cc4ccccn4)c3c2)c1` [Example 156, 6-[3-(Difluoromethyl)phenyl]-1-(2-pyridylmethyl)pyrazolo[4,3-b]pyridine], for which the 50% inhibitory concentration (IC50) was 740 nM.

With `N#Cc1cncc(Cn2ncc3ncc(-c4cccc(C(F)F)c4)cc32)c1` [Example 157, 5-[[6-[3-(Difluoromethyl)phenyl]pyrazolo[4,3-b]pyridin-1-yl]methyl]pyridine-3-carbonitrile], the IC50 came out at 64 nM.

In the case of `FC(F)c1cccc(-c2cnc3cnn(Cc4cncc(Cl)c4)c3c2)c1` [Example 158, 1-[(5-Chloro-3-pyridyl)methyl]-6-[3-(difluoromethyl)phenyl]pyrazolo[4,3-b]pyridine], the concentration for half-maximal inhibition (IC50) stood at 14 nM.

Usually IC50 stands for the point on the concentration scale where inhibition reaches its midpoint.
